Measurements taken from patent EP4722207A1, “OXOISOINDOLINYL-SUBSTITUTED TETRAHYDROPYRIMIDINEDIONE DERIVATIVE AND USE THEREOF” (Gluetacs Therapeutics (Shanghai) Co., Ltd., priority 2023, dated 2024).

How the values were obtained:
Format in all cases: cell-based
IKZF2 = biological target: T1, IKZF2 (Homo sapiens, UniProt Q96SW2+Q9UKS7); test: Western-blot assay, substrate protein degradation in hPBMCs: IKZF2; conditions: for IKZF2 substrate protein remaining %: compounds at 50 nM and 500 nM, 24 hours
T1 construct: effects of the compounds of the present disclosure on the expression of target proteins in cells; endogenous in cells; host or cells: human PBMCs (hPBMCs)

IKZF3 = biological target: T2, IKZF3 (Homo sapiens, UniProt Q96SW2+Q9UKT9); test: Western-blot assay, substrate protein degradation in hPBMCs: IKZF3; conditions: for IKZF3 substrate protein remaining %: compounds at 50 nM and 500 nM, 24 hours
T2 construct: effects of the compounds of the present disclosure on the expression of target proteins in cells; endogenous in cells; host or cells: human PBMCs (hPBMCs)

GSPT1 = biological target: T3, GSPT1 (Homo sapiens, UniProt P15170+Q96SW2); test: Western-blot assay, substrate protein degradation in hPBMCs: GSPT1; conditions: for GSPT1 substrate protein remaining %: compounds at 50 nM and 500 nM, 24 hours
T3 construct: effects of the compounds of the present disclosure on the expression of target proteins in cells; endogenous in cells; host or cells: human PBMCs (hPBMCs)

IKZF1 = biological target: T4, IKZF1 (Homo sapiens, UniProt Q13422+Q96SW2); test: Western-blot assay, substrate protein degradation in hPBMCs: IKZF1; conditions: for IKZF1 substrate protein remaining %: compounds at 50 nM and 500 nM, 24 hours
T4 construct: effects of the compounds of the present disclosure on the expression of target proteins in cells; endogenous in cells; host or cells: human PBMCs (hPBMCs)

WEE1 = biological target: T5, WEE1 (Homo sapiens, UniProt P30291+Q96SW2); test: Western-blot assay, substrate protein degradation in hPBMCs: WEE1; conditions: for WEE1 substrate protein remaining %: compounds at 50 nM and 500 nM, 24 hours
T5 construct: effects of the compounds of the present disclosure on the expression of target proteins in cells; endogenous in cells; host or cells: human PBMCs (hPBMCs)

CK1α = biological target: T6, CK1α (Homo sapiens, UniProt P48729+Q96SW2); test: Western-blot assay, substrate protein degradation in hPBMCs: CK1α; conditions: for CK1α substrate protein remaining %: compounds at 50 nM and 500 nM, 24 hours
T6 construct: effects of the compounds of the present disclosure on the expression of target proteins in cells; endogenous in cells; host or cells: human PBMCs (hPBMCs)

[1] = 24 hours of compound treatment, 50 nM and 500 nM

T1 sequence (Q9UKS7 whole entry): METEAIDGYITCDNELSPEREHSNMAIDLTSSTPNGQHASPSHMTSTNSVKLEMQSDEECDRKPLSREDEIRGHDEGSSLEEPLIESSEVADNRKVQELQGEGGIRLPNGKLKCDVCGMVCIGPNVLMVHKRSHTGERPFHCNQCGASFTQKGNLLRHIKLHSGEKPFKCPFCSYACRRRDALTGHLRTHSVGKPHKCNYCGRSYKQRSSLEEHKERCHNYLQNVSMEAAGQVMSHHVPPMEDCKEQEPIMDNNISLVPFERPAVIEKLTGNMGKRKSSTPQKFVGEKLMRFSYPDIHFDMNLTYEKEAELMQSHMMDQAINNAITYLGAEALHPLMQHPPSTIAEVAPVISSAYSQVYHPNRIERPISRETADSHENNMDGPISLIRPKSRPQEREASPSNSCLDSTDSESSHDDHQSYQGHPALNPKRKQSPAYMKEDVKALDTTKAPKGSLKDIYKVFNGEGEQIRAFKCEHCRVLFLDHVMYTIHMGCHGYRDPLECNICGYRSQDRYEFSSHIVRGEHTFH
T1 sequence (Q96SW2 whole entry): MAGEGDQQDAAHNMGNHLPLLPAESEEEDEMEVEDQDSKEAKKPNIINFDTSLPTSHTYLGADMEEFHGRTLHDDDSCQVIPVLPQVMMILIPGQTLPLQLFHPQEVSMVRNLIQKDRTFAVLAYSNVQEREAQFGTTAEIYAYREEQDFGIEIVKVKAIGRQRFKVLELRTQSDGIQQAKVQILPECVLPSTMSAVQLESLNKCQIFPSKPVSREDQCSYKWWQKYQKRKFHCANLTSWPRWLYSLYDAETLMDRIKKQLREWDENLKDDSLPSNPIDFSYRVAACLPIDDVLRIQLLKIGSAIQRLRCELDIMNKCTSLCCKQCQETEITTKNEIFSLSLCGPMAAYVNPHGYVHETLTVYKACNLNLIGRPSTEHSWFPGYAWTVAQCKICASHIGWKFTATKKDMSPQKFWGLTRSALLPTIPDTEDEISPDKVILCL
T1 sequence (Q16531 whole entry partner): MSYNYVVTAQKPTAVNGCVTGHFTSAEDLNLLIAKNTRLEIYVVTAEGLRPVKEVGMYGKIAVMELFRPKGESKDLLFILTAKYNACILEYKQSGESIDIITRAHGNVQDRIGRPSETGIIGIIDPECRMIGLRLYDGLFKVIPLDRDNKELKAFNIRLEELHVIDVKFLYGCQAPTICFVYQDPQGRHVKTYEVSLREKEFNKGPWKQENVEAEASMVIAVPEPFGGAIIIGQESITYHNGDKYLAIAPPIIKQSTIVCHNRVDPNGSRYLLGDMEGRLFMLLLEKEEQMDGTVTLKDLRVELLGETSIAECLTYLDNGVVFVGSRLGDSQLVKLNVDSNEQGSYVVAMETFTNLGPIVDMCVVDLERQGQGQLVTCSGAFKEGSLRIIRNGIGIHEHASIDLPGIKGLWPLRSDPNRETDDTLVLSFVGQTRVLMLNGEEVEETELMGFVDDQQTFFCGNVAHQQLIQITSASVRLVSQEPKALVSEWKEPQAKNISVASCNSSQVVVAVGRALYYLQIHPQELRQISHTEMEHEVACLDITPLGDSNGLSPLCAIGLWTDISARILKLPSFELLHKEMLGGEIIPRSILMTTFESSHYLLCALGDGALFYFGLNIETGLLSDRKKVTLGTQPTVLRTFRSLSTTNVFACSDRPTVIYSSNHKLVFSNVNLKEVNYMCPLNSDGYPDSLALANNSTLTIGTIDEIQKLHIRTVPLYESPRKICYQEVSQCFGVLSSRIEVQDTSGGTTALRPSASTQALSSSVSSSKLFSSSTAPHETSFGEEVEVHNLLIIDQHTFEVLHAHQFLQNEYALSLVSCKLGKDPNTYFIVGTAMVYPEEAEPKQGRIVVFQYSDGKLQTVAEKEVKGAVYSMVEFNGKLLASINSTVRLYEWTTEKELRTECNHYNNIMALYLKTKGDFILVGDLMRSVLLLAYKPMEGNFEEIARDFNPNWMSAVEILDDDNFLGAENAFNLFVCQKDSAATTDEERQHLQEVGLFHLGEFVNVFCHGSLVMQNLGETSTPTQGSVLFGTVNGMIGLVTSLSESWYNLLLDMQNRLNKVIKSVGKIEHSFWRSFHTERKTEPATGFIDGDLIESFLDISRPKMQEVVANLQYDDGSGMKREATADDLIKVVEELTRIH
T3 sequence (P15170 whole entry): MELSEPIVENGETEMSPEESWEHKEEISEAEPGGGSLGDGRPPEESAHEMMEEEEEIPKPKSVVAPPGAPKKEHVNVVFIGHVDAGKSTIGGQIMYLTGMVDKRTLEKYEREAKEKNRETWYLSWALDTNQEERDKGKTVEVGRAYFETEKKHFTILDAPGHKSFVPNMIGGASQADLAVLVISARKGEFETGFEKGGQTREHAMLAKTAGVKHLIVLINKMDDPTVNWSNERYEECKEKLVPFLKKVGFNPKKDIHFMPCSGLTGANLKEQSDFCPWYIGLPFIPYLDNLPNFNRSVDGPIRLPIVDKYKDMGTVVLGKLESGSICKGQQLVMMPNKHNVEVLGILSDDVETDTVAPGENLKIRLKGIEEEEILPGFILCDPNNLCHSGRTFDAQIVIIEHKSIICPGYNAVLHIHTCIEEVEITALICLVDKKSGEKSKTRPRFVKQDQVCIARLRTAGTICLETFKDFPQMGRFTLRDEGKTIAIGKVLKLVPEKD
T3 sequence (Q96SW2 whole entry): as the sequence (Q96SW2 whole entry) above
T3 sequence (Q16531 whole entry partner): as the sequence (Q16531 whole entry partner) above
T4 sequence (Q13422 whole entry): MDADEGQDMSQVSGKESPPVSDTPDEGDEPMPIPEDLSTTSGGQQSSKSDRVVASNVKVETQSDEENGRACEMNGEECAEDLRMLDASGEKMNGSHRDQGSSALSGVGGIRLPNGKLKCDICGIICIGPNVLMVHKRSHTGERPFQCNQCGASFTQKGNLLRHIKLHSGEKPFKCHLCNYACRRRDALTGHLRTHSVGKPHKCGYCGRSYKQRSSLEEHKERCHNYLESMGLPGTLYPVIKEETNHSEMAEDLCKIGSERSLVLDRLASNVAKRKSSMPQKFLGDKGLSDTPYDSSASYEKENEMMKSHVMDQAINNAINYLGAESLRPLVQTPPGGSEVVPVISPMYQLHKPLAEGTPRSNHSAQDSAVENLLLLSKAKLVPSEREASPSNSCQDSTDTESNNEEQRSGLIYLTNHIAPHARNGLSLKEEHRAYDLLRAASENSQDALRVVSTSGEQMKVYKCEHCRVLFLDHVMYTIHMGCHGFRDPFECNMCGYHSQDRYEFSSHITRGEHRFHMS
T4 sequence (Q96SW2 whole entry): as the sequence (Q96SW2 whole entry) above
T4 sequence (Q16531 whole entry partner): as the sequence (Q16531 whole entry partner) above
T2 sequence (Q9UKT9 whole entry): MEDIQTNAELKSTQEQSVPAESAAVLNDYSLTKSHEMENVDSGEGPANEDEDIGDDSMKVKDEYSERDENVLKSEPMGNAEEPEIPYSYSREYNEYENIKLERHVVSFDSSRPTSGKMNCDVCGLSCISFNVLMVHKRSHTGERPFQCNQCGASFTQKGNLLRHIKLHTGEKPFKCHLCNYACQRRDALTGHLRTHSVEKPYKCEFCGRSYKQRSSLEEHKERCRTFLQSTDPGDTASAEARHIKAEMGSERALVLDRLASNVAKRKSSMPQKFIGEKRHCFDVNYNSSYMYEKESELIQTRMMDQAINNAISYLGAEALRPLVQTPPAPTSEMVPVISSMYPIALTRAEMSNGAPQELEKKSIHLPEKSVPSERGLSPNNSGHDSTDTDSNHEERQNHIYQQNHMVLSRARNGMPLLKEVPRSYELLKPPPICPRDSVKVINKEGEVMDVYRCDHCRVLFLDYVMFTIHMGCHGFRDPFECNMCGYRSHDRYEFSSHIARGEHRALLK
T2 sequence (Q96SW2 whole entry): as the sequence (Q96SW2 whole entry) above
T2 sequence (Q16531 whole entry partner): as the sequence (Q16531 whole entry partner) above
T5 sequence (P30291 whole entry): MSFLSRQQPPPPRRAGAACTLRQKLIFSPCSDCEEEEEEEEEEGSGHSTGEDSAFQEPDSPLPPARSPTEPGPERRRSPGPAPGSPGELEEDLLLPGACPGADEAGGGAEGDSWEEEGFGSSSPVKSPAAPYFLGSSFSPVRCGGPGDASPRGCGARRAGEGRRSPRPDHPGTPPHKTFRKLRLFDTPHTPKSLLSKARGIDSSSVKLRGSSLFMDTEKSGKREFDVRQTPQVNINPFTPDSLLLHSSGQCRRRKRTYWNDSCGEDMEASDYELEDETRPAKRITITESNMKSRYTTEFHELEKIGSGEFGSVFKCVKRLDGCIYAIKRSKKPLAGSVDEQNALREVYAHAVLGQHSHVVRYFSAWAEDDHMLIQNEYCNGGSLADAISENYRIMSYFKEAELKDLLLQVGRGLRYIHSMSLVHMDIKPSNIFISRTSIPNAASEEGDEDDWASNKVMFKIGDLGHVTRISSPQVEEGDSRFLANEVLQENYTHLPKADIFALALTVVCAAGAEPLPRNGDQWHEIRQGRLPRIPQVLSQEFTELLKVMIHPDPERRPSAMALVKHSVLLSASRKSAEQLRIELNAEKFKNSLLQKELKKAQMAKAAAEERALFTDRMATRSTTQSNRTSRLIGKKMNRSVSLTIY
T5 sequence (Q96SW2 whole entry): as the sequence (Q96SW2 whole entry) above
T5 sequence (Q16531 whole entry partner): as the sequence (Q16531 whole entry partner) above

SMILES | IKZF2 substrate protein remaining % (IKZF2) | IKZF3 substrate protein remaining % (IKZF3) | GSPT1 substrate protein remaining % (GSPT1) | IKZF1 substrate protein remaining % (IKZF1) | WEE1 substrate protein remaining % (WEE1) | CK1α substrate protein remaining % (CK1α) | substrate protein remaining % IKZF2 (IKZF2; [1]) | substrate protein remaining % IKZF3 (IKZF3; [1]) | substrate protein remaining % GSPT1 (GSPT1; [1]) | substrate protein remaining % IKZF1 (IKZF1; [1]) | substrate protein remaining % WEE1 (WEE1; [1]) | substrate protein remaining % CK1α (CK1α; [1])
O=C1CCN(N2C(=O)c3ccc(CN4CCN(c5cc(Cl)nnc5Cl)CC4)cc3C2=O)C(=O)N1 [GT-07036, 5-((4-(3,6-dichloropyridazin-4-yl)piperazin-1-yl)methyl)-2-(2,4-dioxotetrahydropyrimidin-1(2H)-yl)isoindoline-1,3-dione] | B ("B" is defined as 80%< substrate protein remaining %≤ 100%) | B ("B" is defined as 80%< substrate protein remaining %≤ 100%) | A ("A" is defined as 0% ≤ substrate protein remaining % ≤ 80%) | B ("B" is defined as 80%< substrate protein remaining %≤ 100%) | B ("B" is defined as 80%< substrate protein remaining %≤ 100%) | B ("B" is defined as 80%< substrate protein remaining %≤ 100%) |  |  |  |  |  | 
CC1(C)CCC(CN2C3CC2CN(Cc2ccc4c(c2)CN(N2CCC(=O)NC2=O)C4=O)C3)=C(c2ccc(Cl)cc2)C1 [GT-06458, 1-(5-((6-((4'-chloro-5,5-dimethyl-3,4,5,6-tetrahydro-[1,1'-biphenyl]-2-yl)methyl)-3,6-diazabicyclo[3.1.1]heptan-3-yl)methyl)-1-oxoisoindolin-2-yl)dihydropyrimidine-2,4(1H,3H)-dione] | A ("A" is defined as 0% ≤ substrate protein remaining % ≤ 80%) | A ("A" is defined as 0% ≤ substrate protein remaining % ≤ 80%) | A ("A" is defined as 0% ≤ substrate protein remaining % ≤ 80%) | A ("A" is defined as 0% ≤ substrate protein remaining % ≤ 80%) | A ("A" is defined as 0% ≤ substrate protein remaining % ≤ 80%) | A ("A" is defined as 0% ≤ substrate protein remaining % ≤ 80%) |  |  |  |  |  | 
O=C1CCN(N2C(=O)c3ccc(CN4CCC(N5CCc6cc(F)ccc65)CC4)cc3C2=O)C(=O)N1 [GT-05260, 2-(2,4-dioxotetrahydropyrimidin-1(2H)-yl)-5-((4-(5-fluoroindolin-1-yl)piperidin-1-yl)methyl)isoindoline-1,3-dione] | A ("A" is defined as 0% ≤ substrate protein remaining % ≤ 80%) | B ("B" is defined as 80%< substrate protein remaining %≤ 100%) | B ("B" is defined as 80%< substrate protein remaining %≤ 100%) | A ("A" is defined as 0% ≤ substrate protein remaining % ≤ 80%) | A ("A" is defined as 0% ≤ substrate protein remaining % ≤ 80%) | B ("B" is defined as 80%< substrate protein remaining %≤ 100%) |  |  |  |  |  | 
O=C1CCN(N2C(=O)c3ccc(CN4CCC(Nc5ccccc5-c5ccc(Cl)cc5)CC4)cc3C2=O)C(=O)N1 [GT-05179, 5-((4-((4'-chloro-[1,1'-biphenyl]-2-yl)amino)piperidin-1-yl)methyl)-2-(2,4-dioxotetrahydropyrimidin-1(2H)-yl)isoindoline-1,3-dione] | B ("B" is defined as 80%< substrate protein remaining %≤ 100%) | B ("B" is defined as 80%< substrate protein remaining %≤ 100%) | B ("B" is defined as 80%< substrate protein remaining %≤ 100%) | B ("B" is defined as 80%< substrate protein remaining %≤ 100%) | A ("A" is defined as 0% ≤ substrate protein remaining % ≤ 80%) | B ("B" is defined as 80%< substrate protein remaining %≤ 100%) |  |  |  |  |  | 
Cc1cc(C2=CCN(Cc3ccc4c(c3)C(=O)N(N3CCC(=O)NC3=O)C4=O)CC2)cs1 [GT-07423, 2-(2,4-dioxotetrahydropyrimidin-1(2H)-yl)-5-((4-(5-methylthiophen-3-yl)-3,6-dihydropyridin-1(2H)-yl)methyl)isoindoline-1,3-dione] |  |  |  |  |  |  | B (80%< substrate protein remaining %≤ 100%) | A (0% ≤ substrate protein remaining % ≤ 80%) | A (0% ≤ substrate protein remaining % ≤ 80%) | B (80%< substrate protein remaining %≤ 100%) | A (0% ≤ substrate protein remaining % ≤ 80%) | A (0% ≤ substrate protein remaining % ≤ 80%)
O=C1CCN(N2C(=O)c3ccc(CN4CCN(c5cncc(Cl)c5Cl)CC4)cc3C2=O)C(=O)N1 [GT-06972, 5-((4-(4,5-dichloropyridin-3-yl)piperazin-1-yl)methyl)-2-(2,4-dioxotetrahydropyrimidin-1(2H)-yl)isoindoline-1,3-dione] | A ("A" is defined as 0% ≤ substrate protein remaining % ≤ 80%) | B ("B" is defined as 80%< substrate protein remaining %≤ 100%) | B ("B" is defined as 80%< substrate protein remaining %≤ 100%) | B ("B" is defined as 80%< substrate protein remaining %≤ 100%) | A ("A" is defined as 0% ≤ substrate protein remaining % ≤ 80%) | B ("B" is defined as 80%< substrate protein remaining %≤ 100%) |  |  |  |  |  | 
O=C1CCN(N2C(=O)c3ccc(CN4CCN(c5ccc(Cl)cc5)CC4)cc3C2=O)C(=O)N1 [GT-06783, 5-((4-(4-chlorophenyl)piperazin-1-yl)methyl)-2-(2,4-dioxotetrahydropyrimidin-1(2H)-yl)isoindoline-1,3-dione] | B ("B" is defined as 80%< substrate protein remaining %≤ 100%) | A ("A" is defined as 0% ≤ substrate protein remaining % ≤ 80%) | B ("B" is defined as 80%< substrate protein remaining %≤ 100%) | B ("B" is defined as 80%< substrate protein remaining %≤ 100%) | B ("B" is defined as 80%< substrate protein remaining %≤ 100%) | B ("B" is defined as 80%< substrate protein remaining %≤ 100%) |  |  |  |  |  | 
O=C1CCN(N2Cc3cc(CN4CCN(c5c(F)cccc5F)CC4)ccc3C2=O)C(=O)N1 [GT-06780, 1-(5-((4-(2,6-difluorophenyl)piperazin-1-yl)methyl)-1-oxoisoindolin-2-yl)dihydropyrimidine-2,4(1H,3H)-dione] | B ("B" is defined as 80%< substrate protein remaining %≤ 100%) | B ("B" is defined as 80%< substrate protein remaining %≤ 100%) | B ("B" is defined as 80%< substrate protein remaining %≤ 100%) | B ("B" is defined as 80%< substrate protein remaining %≤ 100%) | B ("B" is defined as 80%< substrate protein remaining %≤ 100%) | A ("A" is defined as 0% ≤ substrate protein remaining % ≤ 80%) |  |  |  |  |  | 
Cc1cscc1C1CCN(Cc2ccc3c(c2)C(=O)N(N2CCC(=O)NC2=O)C3=O)CC1 [GT-05314, 2-(2,4-dioxotetrahydropyrimidin-1(2H)-yl)-5-((4-(4-methylthiophen-3-yl)piperidin-1-yl)methyl)isoindoline-1,3-dione] | B ("B" is defined as 80%< substrate protein remaining %≤ 100%) | B ("B" is defined as 80%< substrate protein remaining %≤ 100%) | A ("A" is defined as 0% ≤ substrate protein remaining % ≤ 80%) | B ("B" is defined as 80%< substrate protein remaining %≤ 100%) | B ("B" is defined as 80%< substrate protein remaining %≤ 100%) | B ("B" is defined as 80%< substrate protein remaining %≤ 100%) |  |  |  |  |  | 
